Experimental data reported in US9078852B2, “Retinaldehyde in the treatment of obesity, diabetes and other conditions” (The Brigham and Women's Hospital, Inc., priority 2008, dated 2015).
Where two headings read alike, the source gives them in different places.

Legend:
ob/ob mice = assay: ob/ob mice, intraperitoneal administration, 3 weeks; format: in vivo, mouse; details: for percentage of subcutaneous fat relative to total body fat / RBP4 plasma levels as compared to vehicle: retinoids 500 nM
Text: The Standing Committee On Animals at Harvard Medical School approved all protocols.
MRI data (1 mm slices) obtained on a Bruker Avance 500 wide bore spectrometer (11.7 T; 500 MHz for proton) fitted with a gradient amplifier and a 30 mm “birdcage” transmitter/receiver coil was processed with Paravision™ software. Spin Echo parameters included TI weighted images: TE=15 ms and TR=300 ms, matrix=256, FOV=30 mm; RARE images: TE=51 ms, TR=2500 ms, matrix=256, FOV=30 mm. Abdominal fat measurements used axial slices (n=8) at the level of the left renal pelvis.
After acclimation to powdered high fat diet (4 d), food/water intake, oxygen consumption, and carbon dioxide production were measured in metabolic cages (Ancare, Charles River Laboratories). Calculated metabolic rate (Weir equation) was expressed per g body weight. We performed insulin (ITT) and glucose tolerance tests (GTT) after food deprivation (16 h) using intraperitoneal insulin injection (ITT, 0.1 U/ml 0.005 ml/g body weight) or single 25% dextrose (GTT, 0.004 mL/g body weight) administration and glucometer measurements (Accu-Chek Advantage, Roche).
After 3 weeks, subcutaneous fat mass was quantified by magnetic resonance imaging (MRI).

[1] = system: 3T3-L1 mouse pre-adipocyte; assay: 3T3-L1 pre-adipocyte differentiation (adipogenesis) assay; format: cell-based; details: for adiponectin expression, compound added early: added Day 0 of differentiation; for adiponectin expression / adipogenesis, compound added later: added Day 2 of differentiation
Procedure: We cultured and differentiated mouse 3T3-L1 preadipocytes and primary fibroblasts isolated from 16-days old embryos using standard procedures (Green, et al., Cell 3:127-33 (1974)). After reaching confluence (DMEM, high glucose, 10% calf serum, Day 0), cells were differentiated (3-isobutyl-1-methylxanthine 0.5 mM, dexamethasone 1 μM, insulin 1.7 μM) for 48 h before media replacement every 48 h (DMEM, 10% FCS insulin, 1.7 μM) for 7 days.
Northern blotting was performed as before with HyBond (Amersham; Ziouzenkova, et al., Proc. Natl. Acad. Sci. USA 100:2730-5 (2003)).
(§1) We determined triglyceride content in lysed cells (RIPA buffer, complete protease inhibitor cocktail, Roche) using an enzymatic colorimetric assay (Wako, Japan) and adiponectin levels via ELISA (R&D, Minneapolis). For Western blotting, cell lysates, plasma, and tissue lysates underwent reducing gel separation (10% acrylamide) and hybridization with RXR (Santa Cruz, Calif.), mouse RBP4 (Alpco), or UCP1 (Chemicon) antibodies.
To test Rald effects on adipogenesis, we performed 3T3-L1 mouse pre-adipocyte differentiation assays in the presence of Rald concentrations similar to those found in fat in vivo. Rald levels as low as 100 nM suppressed mRNA expression of the adipogenic target genes CD36, adiponectin, and aP2. These repressive effects of Rald were evident in a concentration-dependent manner in either the presence or absence of the PPARγ agonist BRL49653 (BRL), a potent adipogenic stimulus.

Human full-length PPARγ2 = target: T1, Human full-length PPARγ2 (Homo sapiens, UniProt P37231); assay: Scintillation proximity assay / cell-free radioligand displacement; format: binding
T1 sequence (P37231 1-505): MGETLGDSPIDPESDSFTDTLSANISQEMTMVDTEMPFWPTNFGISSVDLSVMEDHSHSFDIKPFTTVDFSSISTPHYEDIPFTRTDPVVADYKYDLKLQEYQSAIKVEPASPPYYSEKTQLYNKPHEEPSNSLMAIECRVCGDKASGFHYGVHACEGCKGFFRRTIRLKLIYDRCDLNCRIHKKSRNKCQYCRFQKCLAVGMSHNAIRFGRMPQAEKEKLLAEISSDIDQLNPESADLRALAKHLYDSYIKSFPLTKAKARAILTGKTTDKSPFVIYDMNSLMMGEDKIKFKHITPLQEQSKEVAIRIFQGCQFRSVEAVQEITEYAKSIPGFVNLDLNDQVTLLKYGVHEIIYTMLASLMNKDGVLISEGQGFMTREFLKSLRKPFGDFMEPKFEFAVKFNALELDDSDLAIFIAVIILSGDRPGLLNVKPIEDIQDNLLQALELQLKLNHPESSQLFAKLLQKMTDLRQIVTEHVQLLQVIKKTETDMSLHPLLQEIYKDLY
Procedure: Scintillation proximity assays were performed on our behalf.
(§2) Given these effects of Rald on RXR-LBD activation, we next tested if Rald could inhibit activation of a transfected canonical PPAR response element (PPRE) luciferase construct after RXR and/or PPARγ transfection and respective agonist stimulation (9-cis RA or BRL). […] Similar effects were evident in cell-based PPARγ-LBD assays in the presence of BRL. Thus, Rald suppresses adipogenic gene expression, adipocyte lipid accumulation, RXRα and PPARγ-LBD activation, as well as PPRE responses, all at concentrations (<1 μM) that overlap levels present in rodent fat in vivo. Importantly, these Rald effects diverge from the responses seen to RA.

RARα-LBD = target: T2, RARα-LBD (Homo sapiens, UniProt P10276); assay: LBD-GAL4 transfection assay, RARα-LBD; format: cell-based
T2 construct: expressed in transfected cells; host or cells: NIH 3T3 cells
T2 sequence (P10276 183-417 limits assumed): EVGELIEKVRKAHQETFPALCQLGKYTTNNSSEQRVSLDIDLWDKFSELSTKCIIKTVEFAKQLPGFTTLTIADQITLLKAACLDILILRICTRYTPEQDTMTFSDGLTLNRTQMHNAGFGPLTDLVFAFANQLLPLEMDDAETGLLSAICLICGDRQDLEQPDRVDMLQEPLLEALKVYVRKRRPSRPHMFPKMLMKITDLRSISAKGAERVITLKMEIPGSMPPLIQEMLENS
Text: (§3) Transient transfection of NIH 3T3 cells (2.3×10^4 cells, 24-well plates) with PCMX-β-galactosidase and LBD/yeast Gal 4/luciferase constructs used Fugene (Roche) as before (Ziouzenkova, et al., Proc. Natl. Acad. Sci. USA 100:2730-5 (2003)). For siRNA transfections, 3T3-L1 cells (90% confluence, antibiotic-free DMEM, 10% CS, 24-well plates) received control (sequences C, D) or specific siRXRα and siRXRβ sequences (Santa Cruz) using Lipofectamine 2000/OptiMEM medium (Invitrogen) and media supplemented with 10% FBS 5 h post-transfection. Western blotting evaluated RXR levels post-transfection (48 h). After transfection (48 h), we induced differentiation before analysis after 7 days.
(§4) Given Rald's suppression of PPARγ agonist-stimulated adipogenesis and adiponectin release, we tested if Rald altered activation of RAR and RXR, and if it did so in a way distinct from other retinoids. Ligand binding domain (LBD)-GAL4 transfection assays were performed in 3T3-NIH fibroblasts in the presence or absence of known specific nuclear receptor agonists and/or Rald. […] Rald alone had no effect on RXRα-LBD activation. […] Thus, Rald plays a distinct, independent role from RA in RXRα-LBD regulation, suppressing ligand-mediated activation.

RXRα-LBD = target: T3, RXRα-LBD (Homo sapiens, UniProt P19793); assay: LBD-GAL4 transfection assay, RXRα-LBD; format: cell-based
T3 construct: expressed in transfected cells; host or cells: NIH 3T3 cells
T3 sequence (P19793 227-458 limits assumed): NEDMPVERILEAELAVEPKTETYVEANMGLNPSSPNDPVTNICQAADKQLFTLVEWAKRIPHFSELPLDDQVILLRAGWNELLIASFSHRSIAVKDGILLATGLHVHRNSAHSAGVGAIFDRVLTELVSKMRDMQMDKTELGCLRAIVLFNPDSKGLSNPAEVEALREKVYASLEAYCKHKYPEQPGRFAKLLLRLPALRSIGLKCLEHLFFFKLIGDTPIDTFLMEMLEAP
Text: as §3, §4

[2] = system: PPAR response element (PPRE); assay: PPRE luciferase construct after RXR and/or PPARγ transfection; format: cell-based
Text: as §3, §2

PPARγ-LBD = target: T4, PPARγ-LBD (Homo sapiens, UniProt P37231); assay: Cell-based PPARγ-LBD assay; details: presence of BRL; concentrations <1 μM
T4 construct: expressed in transfected cells; host or cells: NIH 3T3 cells
T4 sequence (P37231 238-503 limits assumed): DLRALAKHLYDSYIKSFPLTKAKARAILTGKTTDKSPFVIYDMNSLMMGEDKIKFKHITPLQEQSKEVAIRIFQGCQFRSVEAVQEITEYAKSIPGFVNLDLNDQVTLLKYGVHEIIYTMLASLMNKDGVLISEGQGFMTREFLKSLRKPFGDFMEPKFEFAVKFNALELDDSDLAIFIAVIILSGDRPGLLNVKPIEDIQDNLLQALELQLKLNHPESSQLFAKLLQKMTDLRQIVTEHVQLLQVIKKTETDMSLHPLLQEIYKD
Text: as §3, §2

[3] = system: RXRα/RXRβ siRNA-treated 3T3-L1 adipocytes; assay: 3T3-L1 adipogenesis assay after RXRα/RXRβ siRNA; format: cell-based, mouse; details: RXRα/RXRβ siRNA 48 hours, differentiation 7 days
Text: as §3, §1
To evaluate Rald effects in an RXR loss of function model, 3T3-L1 adipogenesis assays in the presence of Rald were repeated but after first decreasing RXRα and RXRβ levels using siRNA to each RXR isotype. […]

[4] = system: preadipocytes isolated from human visceral fat depots; assay: Adipogenesis in preadipocytes from human visceral fat; format: cell-based
rats = details: cited from earlier work
[5] = MRI after 3 weeks, i.p., citral 10 μM
[6] = summary statement, unit inferred, read-out: Kd, receptor binding
[7] = cell-free radioligand displacement, read-out: Kd, displacement of high affinity PPARγ agonists

SMILES: CC1=C(/C=C/C(C)=C/C=C/C(C)=C/CO)C(C)(C)CCC1 [vitamin A, retinol, reference compound]
- percentage of subcutaneous fat relative to total body fat (ob/ob mice; [5]): 17.3±1.3%
- RBP4 plasma levels as compared to vehicle (ob/ob mice; i.p., citral 10 μM): increased RBP4 plasma levels two-fold

SMILES: CN(CCOc1ccc(CC2SC(=O)NC2=O)cc1)c1ccccn1 (stereo not drawn) [BRL, rosiglitazone, reference compound]
- adiponectin levels induced by BRL stimulation [1]: six-fold increase

SMILES: CC1=C(/C=C/C(C)=C/C=C/C(C)=C/C=O)C(C)(C)CCC1 [Rald, retinaldehyde]
- Kd (Human full-length PPARγ2; [6]): 11.9 ± 1.9 µM
- adiponectin levels induced by BRL stimulation [1]: mitigated
- mRNA expression of adipogenic target genes CD36, adiponectin, aP2 ([1]; Rald levels as low as 100 nM, presence or absence of BRL): suppressed
- lipid accumulation ([1]; absence and presence of BRL): decreased
- adiponectin expression, compound added early [1]: inhibited
- adiponectin expression / adipogenesis, compound added later [1]: also inhibited adipogenesis
- adiponectin secretion ([1]; stimulation early or late, concentration-dependent): decreased
- RARα-LBD activation (RARα-LBD; compound alone, 3T3-NIH fibroblasts): weakly activated
- RARα-LBD activation by 9-cis RA (RARα-LBD; in presence of 9-cis RA): did not alter
- RXRα-LBD activation (RXRα-LBD; compound alone): no effect
- RXRα-LBD activation by 9-cis RA (RXRα-LBD; in presence of 9-cis RA): significantly inhibited
- inhibition of PPRE activation ([2]; PPARγ and RXR co-transfection and PPARγ agonist stimulation): 60%
- PPRE activation by both agonists (9-cis RA or BRL) ([2]; RXR and/or PPARγ transfection): significantly inhibited
- PPARγ-LBD activation (PPARγ-LBD): suppresses
- adiponectin secretion after siRNA exposure [3]: no additional effects
- triglyceride accumulation after siRNA exposure [3]: further decreased
- subcutaneous fat (ob/ob mice; MRI after 3 weeks, i.p. 500 nM): significantly less subcutaneous fat
- percentage of subcutaneous fat relative to total body fat (ob/ob mice; [5]): 15.5±0.6%
- glucose tolerance (ob/ob mice; i.p., Rald 500 nM, citral 10 μM): improved
- RBP4 plasma levels as compared to vehicle (ob/ob mice; i.p., citral 10 μM): significantly suppressed
- adipogenesis [4]: repressed

SMILES: CC(C)=CCCC(C)=CC=O [citral, 3,7-dimethyl-2,6-octadienal]
- RBP4 plasma levels as compared to vehicle (ob/ob mice; i.p., citral 10 μM): significantly suppressed
- tolerability (rats; high doses, rats): well tolerated
- body weight versus citral free diet (rats; rats fed a diet with citral): weighed less

SMILES: CC1=C(/C=C/C(C)=C/C=C/C(C)=C/C=O)C(C)(C)CCC1 [13-cis Rald]
- Kd (Human full-length PPARγ2; [7]): 9.7 ± 1.2 µM
- Kd (Human full-length PPARγ2; [6]): 9.7 ± 1.2 µM

SMILES: CC1=C(/C=C/C(C)=C/C=C/C(C)=C/C(=O)O)C(C)(C)CCC1 [all-trans RA, Retinoic acid, reference compound]
- adiponectin expression / adipogenesis, compound added later [1]: no effect
- percentage of subcutaneous fat relative to total body fat (ob/ob mice; [5]): 19.1±1.6%
- RBP4 plasma levels as compared to vehicle (ob/ob mice; i.p., citral 10 μM): no effect

SMILES: CC1=C(/C=C/C(C)=C\C=C\C(C)=C\C=O)C(C)(C)CCC1 [9-cis Rald]
- Kd (Human full-length PPARγ2; [7]): 5.9 ± 0.7 µM
- Kd (Human full-length PPARγ2; [6]): 5.9 ± 0.7 µM

SMILES: CC1=C(/C=C/C(C)=C\C=C\C(C)=C\C(=O)O)C(C)(C)CCC1 [9-cis RA, reference compound]
- adiponectin expression, compound added early [1]: inhibited
- adiponectin expression / adipogenesis, compound added later [1]: no effect
